# Measurements as given in ChEMBL document CHEMBL1139441, “Design, synthesis, molecular modeling studies, and calpain inhibitory activity of novel alpha-ketoamides incorporating polar residues at the P1'-position” (J Med Chem, 2004).
# pKi: −log10 of the molar value.
# Molecular target: T1, Calpain-1 catalytic subunit (Sus scrofa, UniProt P35750)
# T1 sequence (P35750 whole entry): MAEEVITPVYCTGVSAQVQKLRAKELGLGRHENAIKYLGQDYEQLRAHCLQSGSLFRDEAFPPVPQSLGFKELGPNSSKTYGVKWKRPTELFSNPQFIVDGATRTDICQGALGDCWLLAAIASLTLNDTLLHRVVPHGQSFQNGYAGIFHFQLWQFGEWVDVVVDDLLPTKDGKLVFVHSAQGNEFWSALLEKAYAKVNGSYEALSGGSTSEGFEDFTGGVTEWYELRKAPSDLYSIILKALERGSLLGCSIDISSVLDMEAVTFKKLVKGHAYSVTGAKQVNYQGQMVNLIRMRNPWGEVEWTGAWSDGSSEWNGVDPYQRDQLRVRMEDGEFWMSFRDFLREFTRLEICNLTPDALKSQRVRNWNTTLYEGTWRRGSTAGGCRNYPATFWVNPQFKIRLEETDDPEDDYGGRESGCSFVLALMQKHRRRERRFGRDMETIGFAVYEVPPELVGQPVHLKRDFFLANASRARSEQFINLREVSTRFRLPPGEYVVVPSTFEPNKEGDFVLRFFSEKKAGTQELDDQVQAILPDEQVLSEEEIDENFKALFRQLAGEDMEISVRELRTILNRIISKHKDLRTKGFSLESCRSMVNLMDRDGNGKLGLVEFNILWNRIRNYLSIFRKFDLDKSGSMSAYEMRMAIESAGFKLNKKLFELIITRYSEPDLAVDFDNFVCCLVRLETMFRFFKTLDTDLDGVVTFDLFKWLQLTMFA
# Test: Binding affinity against porcine erythrocyte calpain I was determined
row,SMILES,pKi
1,CC(C)CC(NC(=O)OCc1ccccc1)C(=O)N[C@@H](Cc1ccccc1)C(=O)C(=O)N[C@@H](Cc1ccccc1)C(=O)O (stereo partly specified),6.08
2,CC(C)CC(NC(=O)OCc1ccccc1)C(=O)N[C@@H](Cc1ccccc1)C(=O)C(=O)NCCc1ccccc1 (stereo partly specified),7.27
3,CC(C)CC(NC(=O)OCc1ccccc1)C(=O)N[C@@H](Cc1ccccc1)C(=O)C(=O)NNCc1ccccc1 (stereo partly specified),8.33

# Second part, the compound after the results:
row,pKi,SMILES
1,6.17,COC(=O)[C@H](Cc1ccccc1)NC(=O)C(=O)[C@H](Cc1ccccc1)NC(=O)C(CC(C)C)NC(=O)OCc1ccccc1 (stereo partly specified)
2,6.03,COC(=O)[C@@H](Cc1ccccc1)NC(=O)C(=O)[C@H](Cc1ccccc1)NC(=O)C(CC(C)C)NC(=O)OCc1ccccc1 (stereo partly specified)
3,< 3.37,CC(C)CC(NC(=O)OCc1ccccc1)C(=O)N[C@@H](Cc1ccccc1)C(=O)C(=O)N[C@H](Cc1ccccc1)C(=O)O (stereo partly specified)
